According to PubChem BioAssay (NCI):
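Each compound was tested at five concentrations against cells in 96-well plates for 48 hours. TGI marks complete inhibition of growth.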

What was measured:
Experiment in all cases: inhibition of tumour cell growth, NCI panel, 48 h
K-562 leukemia = system: K-562 leukemia
HOP-62 NSCLC = system: HOP-62 NSCLC
HCC-2998 colon = system: HCC-2998 colon
ACHN renal = system: ACHN renal
OVCAR-3 ovarian = system: OVCAR-3 ovarian
NCI-H23 lung = system: NCI-H23 lung
SR leukemia = system: SR leukemia
DMS 273 small cell lung = system: DMS 273 small cell lung
SNB-75 CNS = system: SNB-75 CNS
SK-MEL-5 melanoma = system: SK-MEL-5 melanoma
A498 renal = system: A498 renal
DLD-1 colon = system: DLD-1 colon
XF 498 CNS = system: XF 498 CNS
SNB-78 CNS = system: SNB-78 CNS
HOP-92 NSCLC = system: HOP-92 NSCLC
OVCAR-8 ovarian = system: OVCAR-8 ovarian
HL-60(TB) leukemia = system: HL-60(TB) leukemia
SF-268 CNS = system: SF-268 CNS
SNB-19 CNS = system: SNB-19 CNS
CCRF-CEM leukemia = system: CCRF-CEM leukemia
RXF-631 renal = system: RXF-631 renal
SF-295 CNS = system: SF-295 CNS
RPMI-8226 leukemia = system: RPMI-8226 leukemia
RXF 393 renal = system: RXF 393 renal
HCT-15 colon = system: HCT-15 colon
IGROV1 ovarian = system: IGROV1 ovarian
LXFL 529 NSCLC = system: LXFL 529 NSCLC
UACC-257 melanoma = system: UACC-257 melanoma
KM20L2 colon = system: KM20L2 colon
U251 CNS = system: U251 CNS
HCT-116 colon = system: HCT-116 colon
NCI-H460 lung = system: NCI-H460 lung
M14 melanoma = system: M14 melanoma
SK-OV-3 ovarian = system: SK-OV-3 ovarian
TK-10 renal = system: TK-10 renal
SF-539 CNS = system: SF-539 CNS
NCI-H522 lung = system: NCI-H522 lung
786-0 renal = system: 786-0 renal
MOLT-4 leukemia = system: MOLT-4 leukemia
MALME-3M melanoma = system: MALME-3M melanoma
DMS 114 small cell lung = system: DMS 114 small cell lung
UO-31 renal = system: UO-31 renal
EKVX NSCLC = system: EKVX NSCLC
SK-MEL-2 melanoma = system: SK-MEL-2 melanoma
SN12C renal = system: SN12C renal
OVCAR-4 ovarian = system: OVCAR-4 ovarian
SK-MEL-28 melanoma = system: SK-MEL-28 melanoma
A549 NSCLC = system: A549 NSCLC
LOX IMVI melanoma = system: LOX IMVI melanoma
COLO 205 colon = system: COLO 205 colon
CAKI-1 renal = system: CAKI-1 renal
KM12 colon = system: KM12 colon
SW-620 colon = system: SW-620 colon
UACC-62 melanoma = system: UACC-62 melanoma
OVCAR-5 ovarian = system: OVCAR-5 ovarian
HT29 colon = system: HT29 colon
M19-MEL melanoma = system: M19-MEL melanoma

COc1ccc2cc1Oc1ccc(cc1)C[C@@H]1c3cc(c(OC)cc3CCN1C)Oc1c(OC)c(OC)cc3c1[C@@H](C2)N(C)CC3
TGI (K-562 leukemia): 9.77 µM
TGI (HOP-62 NSCLC): 35.8 µM
TGI (HCC-2998 colon): 30.7 µM
TGI (ACHN renal): 34.8 µM
TGI (OVCAR-3 ovarian): 33.8 µM
TGI (NCI-H23 lung): 33.7 µM
TGI (SR leukemia): 43.3 µM
TGI (DMS 273 small cell lung): 35.3 µM
TGI (SNB-75 CNS): 23.7 µM
TGI (SK-MEL-5 melanoma): 33.8 µM
TGI (A498 renal): 32.5 µM
TGI (DLD-1 colon): 71.6 µM
TGI (XF 498 CNS): 19.3 µM
TGI (SNB-78 CNS): 31.6 µM
TGI (HOP-92 NSCLC): 26.9 µM
TGI (OVCAR-8 ovarian): 28.2 µM
TGI (HL-60(TB) leukemia): 39.9 µM
TGI (SF-268 CNS): 52.4 µM
TGI (SNB-19 CNS): 30.8 µM
TGI (CCRF-CEM leukemia): 35 µM
TGI (RXF-631 renal): 30 µM
TGI (SF-295 CNS): 31.3 µM
TGI (RPMI-8226 leukemia): 39.9 µM
TGI (RXF 393 renal): 8.77 µM
TGI (HCT-15 colon): 30 µM
TGI (IGROV1 ovarian): 40.8 µM
TGI (LXFL 529 NSCLC): 32.7 µM
TGI (UACC-257 melanoma): 28.1 µM
TGI (KM20L2 colon): 21.3 µM
TGI (U251 CNS): 26 µM
TGI (HCT-116 colon): 13 µM
TGI (NCI-H460 lung): 27.3 µM
TGI (M14 melanoma): 4.01 µM
TGI (SK-OV-3 ovarian): 41.2 µM
TGI (TK-10 renal): 33.5 µM
TGI (SF-539 CNS): 23 µM
TGI (NCI-H522 lung): 30 µM

C=CCN(N=O)C(=O)N(CCCC(NC(C)=O)C(=O)NCc1ccccc1)Cc1ccccc1 (stereo not drawn)
TGI (K-562 leukemia): > 100 µM
TGI (HOP-62 NSCLC): > 100 µM
TGI (786-0 renal): > 100 µM
TGI (MOLT-4 leukemia): 58.3 µM
TGI (ACHN renal): > 100 µM
TGI (MALME-3M melanoma): > 100 µM
TGI (OVCAR-3 ovarian): > 100 µM
TGI (DMS 114 small cell lung): > 100 µM
TGI (NCI-H23 lung): > 100 µM
TGI (DMS 273 small cell lung): > 100 µM
TGI (UO-31 renal): > 100 µM
TGI (EKVX NSCLC): > 100 µM
TGI (SNB-75 CNS): > 100 µM
TGI (SK-MEL-2 melanoma): > 100 µM
TGI (SK-MEL-5 melanoma): 93.8 µM
TGI (A498 renal): > 100 µM
TGI (SN12C renal): > 100 µM
TGI (OVCAR-4 ovarian): > 100 µM
TGI (XF 498 CNS): > 100 µM
TGI (OVCAR-8 ovarian): > 100 µM
TGI (HL-60(TB) leukemia): 52.9 µM
TGI (SF-268 CNS): > 100 µM
TGI (SNB-19 CNS): > 100 µM
TGI (SK-MEL-28 melanoma): > 100 µM
TGI (A549 NSCLC): > 100 µM
TGI (CCRF-CEM leukemia): 95.6 µM
TGI (RXF-631 renal): > 100 µM
TGI (LOX IMVI melanoma): > 100 µM
TGI (SF-295 CNS): > 100 µM
TGI (RPMI-8226 leukemia): 59.4 µM
TGI (RXF 393 renal): > 100 µM
TGI (COLO 205 colon): > 100 µM
TGI (CAKI-1 renal): 83.9 µM
TGI (KM12 colon): > 100 µM
TGI (HCT-15 colon): > 100 µM
TGI (IGROV1 ovarian): > 100 µM
TGI (SW-620 colon): > 100 µM
TGI (UACC-62 melanoma): > 100 µM
TGI (LXFL 529 NSCLC): > 100 µM
TGI (UACC-257 melanoma): > 100 µM
TGI (KM20L2 colon): > 100 µM
TGI (U251 CNS): > 100 µM
TGI (NCI-H460 lung): > 100 µM
TGI (M14 melanoma): > 100 µM
TGI (SK-OV-3 ovarian): > 100 µM
TGI (OVCAR-5 ovarian): > 100 µM
TGI (TK-10 renal): > 100 µM
TGI (SF-539 CNS): > 100 µM
TGI (NCI-H522 lung): 84.8 µM
TGI (HT29 colon): 82.4 µM
TGI (M19-MEL melanoma): > 100 µM
